# Patent US10870647B2, “Imidazopyridine derivative, method for preparing same, and pharmaceutical composition containing same as active ingredient for preventing or treating cancer” (DAEGU-GYEONGBUK MEDICAL INNOVATION FOUNDATION, priority 2016, dated 2020)
# Assays:
# Test in all cases: Kinase selectivity, scanMAX Kinase assay panel (DiscoverX), % control at 1 uM
# Assay type in all cases: binding
# [1] = molecular target: T1, scanMAX Kinase assay panel (Homo sapiens, UniProt P54760); conditions: EPHB4; 1 uM; read-out: Percent Control (%)
# T1 construct: purchased DiscoverX
# T1 sequence (P54760 16-987): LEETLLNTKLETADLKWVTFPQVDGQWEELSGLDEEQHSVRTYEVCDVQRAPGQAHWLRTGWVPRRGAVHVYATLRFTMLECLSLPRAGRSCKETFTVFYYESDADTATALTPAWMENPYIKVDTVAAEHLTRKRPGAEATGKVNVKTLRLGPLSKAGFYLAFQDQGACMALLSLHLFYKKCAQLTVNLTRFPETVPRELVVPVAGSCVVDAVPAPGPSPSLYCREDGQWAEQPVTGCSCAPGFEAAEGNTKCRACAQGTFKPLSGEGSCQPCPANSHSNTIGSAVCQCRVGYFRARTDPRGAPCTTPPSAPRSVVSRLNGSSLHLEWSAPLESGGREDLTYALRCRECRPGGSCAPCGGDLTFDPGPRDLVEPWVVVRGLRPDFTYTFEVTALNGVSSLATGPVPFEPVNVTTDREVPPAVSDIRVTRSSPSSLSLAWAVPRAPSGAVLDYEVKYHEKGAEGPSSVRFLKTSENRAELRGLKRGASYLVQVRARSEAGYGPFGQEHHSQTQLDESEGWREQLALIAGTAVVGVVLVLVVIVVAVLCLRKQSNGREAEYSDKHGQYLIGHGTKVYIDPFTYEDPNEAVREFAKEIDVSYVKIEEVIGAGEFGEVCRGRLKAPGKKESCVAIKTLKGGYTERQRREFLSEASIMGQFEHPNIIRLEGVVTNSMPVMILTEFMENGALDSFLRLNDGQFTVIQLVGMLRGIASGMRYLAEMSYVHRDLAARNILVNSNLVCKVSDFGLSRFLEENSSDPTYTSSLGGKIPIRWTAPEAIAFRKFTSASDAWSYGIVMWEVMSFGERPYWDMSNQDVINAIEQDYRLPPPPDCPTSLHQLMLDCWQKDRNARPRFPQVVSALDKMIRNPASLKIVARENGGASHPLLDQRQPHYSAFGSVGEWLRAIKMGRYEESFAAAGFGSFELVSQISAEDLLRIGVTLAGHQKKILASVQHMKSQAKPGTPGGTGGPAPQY
# Method in brief: (§1)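 Each kinase was first exposed to the test compound at 1 uM in DMSO. Signal was then normalised to positive and negative controls to give % control. Finally, any enzyme showing <35% control was judged inhibited.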
# [2] = molecular target: T2, scanMAX Kinase assay panel (Homo sapiens, UniProt Q9UHD2); conditions: TBK1; 1 uM; read-out: Percent Control (%)
# T2 construct: purchased DiscoverX
# T2 sequence (Q9UHD2 1-729): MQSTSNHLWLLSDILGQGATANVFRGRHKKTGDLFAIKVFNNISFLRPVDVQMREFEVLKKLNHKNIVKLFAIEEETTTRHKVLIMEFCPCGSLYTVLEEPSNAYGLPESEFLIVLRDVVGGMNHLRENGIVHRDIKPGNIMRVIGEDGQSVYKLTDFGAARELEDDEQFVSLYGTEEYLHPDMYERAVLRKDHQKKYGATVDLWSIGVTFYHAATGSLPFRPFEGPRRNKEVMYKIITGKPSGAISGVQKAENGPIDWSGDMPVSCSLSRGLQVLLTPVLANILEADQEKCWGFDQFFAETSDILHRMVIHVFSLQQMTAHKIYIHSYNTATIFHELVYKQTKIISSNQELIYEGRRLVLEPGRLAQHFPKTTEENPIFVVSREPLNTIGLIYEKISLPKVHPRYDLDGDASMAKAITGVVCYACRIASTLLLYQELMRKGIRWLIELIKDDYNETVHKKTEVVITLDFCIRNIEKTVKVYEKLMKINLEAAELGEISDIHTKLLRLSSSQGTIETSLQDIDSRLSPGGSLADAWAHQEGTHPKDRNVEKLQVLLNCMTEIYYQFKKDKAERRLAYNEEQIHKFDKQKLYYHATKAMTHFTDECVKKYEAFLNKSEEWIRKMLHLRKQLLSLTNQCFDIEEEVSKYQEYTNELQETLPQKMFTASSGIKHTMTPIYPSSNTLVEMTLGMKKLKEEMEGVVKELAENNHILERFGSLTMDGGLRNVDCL
# Method in brief: as §1
# [3] = molecular target: T3, scanMAX Kinase assay panel (Homo sapiens, UniProt Q13873); conditions: BMPR2; 1 uM; read-out: Percent Control (%)
# T3 construct: purchased DiscoverX
# T3 sequence (Q13873 27-1038): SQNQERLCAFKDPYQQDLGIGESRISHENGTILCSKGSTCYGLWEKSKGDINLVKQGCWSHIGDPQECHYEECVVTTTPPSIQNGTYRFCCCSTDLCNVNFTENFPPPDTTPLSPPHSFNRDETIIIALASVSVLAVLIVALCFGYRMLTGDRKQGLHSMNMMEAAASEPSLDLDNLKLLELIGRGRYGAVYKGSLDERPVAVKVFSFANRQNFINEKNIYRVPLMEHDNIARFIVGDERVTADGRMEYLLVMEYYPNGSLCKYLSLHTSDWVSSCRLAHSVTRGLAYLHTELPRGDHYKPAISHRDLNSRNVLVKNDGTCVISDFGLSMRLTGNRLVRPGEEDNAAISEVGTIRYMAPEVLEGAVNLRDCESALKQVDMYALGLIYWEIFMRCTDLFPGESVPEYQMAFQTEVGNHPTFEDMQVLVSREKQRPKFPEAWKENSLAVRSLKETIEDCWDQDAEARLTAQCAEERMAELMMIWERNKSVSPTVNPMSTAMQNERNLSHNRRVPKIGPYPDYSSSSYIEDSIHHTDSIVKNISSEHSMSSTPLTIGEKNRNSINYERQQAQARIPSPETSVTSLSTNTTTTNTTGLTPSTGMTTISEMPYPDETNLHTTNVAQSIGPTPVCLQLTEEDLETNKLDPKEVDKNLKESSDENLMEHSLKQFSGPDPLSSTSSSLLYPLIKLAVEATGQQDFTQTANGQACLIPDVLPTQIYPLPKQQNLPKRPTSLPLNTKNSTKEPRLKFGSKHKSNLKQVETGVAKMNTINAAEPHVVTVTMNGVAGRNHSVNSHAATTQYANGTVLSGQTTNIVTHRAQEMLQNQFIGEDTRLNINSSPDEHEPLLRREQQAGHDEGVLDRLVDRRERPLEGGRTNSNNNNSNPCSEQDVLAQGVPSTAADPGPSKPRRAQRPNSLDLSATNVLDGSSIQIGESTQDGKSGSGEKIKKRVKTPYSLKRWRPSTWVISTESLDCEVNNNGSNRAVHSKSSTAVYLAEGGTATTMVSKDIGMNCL
# Method in brief: as §1
compound,measurement,setting,value
"Cc1ccc(C(=O)Nc2ccc(CN3CCN(C)CC3)c(C(F)(F)F)c2)cc1C#Cc1cnc2c(Nc3cnn(C)c3)cccn12 [Example 1, 4-methyl-3-((8-((1-methyl-1H-pyrazol-4-yl)amino)imidazo[1,2-a]pyridin-3-yl)ethynyl)-N-(4-((4-methylpiperazin-1-yl)methyl)-3-(trifluoromethyl)phenyl)benzamide]",remaining binding at 1 µM,[1],3%
same,remaining binding at 1 µM,[2],68%
same,remaining binding at 1 µM,[3],82%
"Cc1cn(-c2cc(NC(=O)c3ccc(C)c(C#Cc4cnc5c(Nc6cnn(C)c6)cccn45)c3)cc(C(F)(F)F)c2)cn1 [Example 12, 4-methyl-N-(3-(4-methyl-1H-imidazol-1-yl)-5-(trifluoromethyl)phenyl)-3-((8-((1-methyl-1H-pyrazol-4-yl)amino)imidazo[1,2-a]pyridin-3-yl)ethynyl)benzamide]",remaining binding at 1 µM,[1],41%
same,remaining binding at 1 µM,[2],84%
same,remaining binding at 1 µM,[3],100%
Cc1ccc(NC(=O)C2(C(=O)Nc3ccc(F)cc3)CC2)cc1C#Cc1cnc2c(Nc3cnn(C(C)C)c3)cccn12 [Example 78],remaining binding at 1 µM,[1],100%
same,remaining binding at 1 µM,[2],100%
same,remaining binding at 1 µM,[3],84%
